Measurements reported in patent US12660819B2, “Herbicidal derivatives” (SYNGENTA CROP PROTECTION AG, priority 2020, dated 2026).

Experiments:
Type in all cases: in vivo
[1] = tested on: Abutilon theophrasti (ABUTH); experiment: Post-emergence Test (glasshouse, percentage damage to the plant); conditions: post-emergence spray, 1000 g/ha unless otherwise stated, evaluated after 13 days
Outline: (§1)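 Seeds are sown in standard soil under controlled glasshouse conditions. The pots are then sprayed at 1000 g/ha, unless otherwise stated, with compound in acetone/water (50:50) containing 0.5% Tween 20. After 13 days further growth, percentage plant damage is scored from 1 (0-20%) to 5 (81-100%).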

[2] = tested on: Amaranthus retoflexus (AMARE); experiment: as above; conditions: post-emergence spray, 1000 g/ha unless otherwise stated, evaluated after 13 days
Outline: as §1

[3] = tested on: Echinochloa crus-galli (ECHCG); experiment: as above; conditions: post-emergence spray, 1000 g/ha unless otherwise stated, evaluated after 13 days
Outline: as §1

[4] = tested on: Ipomoea hederacea (IPOHE); experiment: as above; conditions: post-emergence spray, 1000 g/ha unless otherwise stated, evaluated after 13 days
Outline: (§2)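 Scored 13 days after spraying as percentage plant damage in five bands (5=81–100%, 4=61–80%, 3=41–60%, 2=21–40%, 1=0–20%). Spray at 1000 g/ha unless stated, in acetone/water 50:50 plus 0.5% Tween 20, onto sown glasshouse pots (24/16 °C, 14 h light, 65% humidity).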

Setaria faberi (SETFA) [5] = experiment: as above; conditions: post-emergence spray, 1000 g/ha unless otherwise stated, evaluated after 13 days
Outline: as §2

Zea mays (ZEAMX) [6] = experiment: as above; conditions: post-emergence spray, 1000 g/ha unless otherwise stated, evaluated after 13 days
Outline: as §2

[7] = tested on: Amaranthus retoflexus (AMARE); experiment: Pre-emergence Test (glasshouse, percentage damage to the plant); conditions: 1000 g/ha unless otherwise stated, five-point scale
Setaria faberi (SETFA) [8] = experiment: as above; conditions: 1000 g/ha unless otherwise stated, five-point scale
[9] = tested on: Echinochloa crus-galli (ECHCG); experiment: as above; conditions: 1000 g/ha unless otherwise stated, five-point scale
[10] = tested on: Ipomoea hederacea (IPOHE); experiment: as above; conditions: 1000 g/ha unless otherwise stated, five-point scale
[11] = tested on: Abutilon theophrasti (ABUTH); experiment: as above; conditions: 1000 g/ha unless otherwise stated, five-point scale
Zea mays (ZEAMX) [12] = experiment: as above; conditions: 1000 g/ha unless otherwise stated, five-point scale

| Compound | Post-emergence Test ABUTH, percentage damage to the plant (five-point scale) [1] | Post-emergence Test AMARE, percentage damage to the plant (five-point scale) [2] | Post-emergence Test ECHCG, percentage damage to the plant (five-point scale) [3] | Post-emergence Test IPOHE, percentage damage to the plant (five-point scale) [4] | Post-emergence Test SETFA, percentage damage to the plant (five-point scale) (Setaria faberi (SETFA) [5]) | Post-emergence Test ZEAMX, percentage damage to the plant (five-point scale) (Zea mays (ZEAMX) [6]) | percentage damage to the plant, AMARE [7] | percentage damage to the plant, SETFA (Setaria faberi (SETFA) [8]) | percentage damage to the plant, ECHCG [9] | percentage damage to the plant, IPOHE [10] | percentage damage to the plant, ABUTH [11] | percentage damage to the plant, ZEAMX (Zea mays (ZEAMX) [12]) |
| --- | --- | --- | --- | --- | --- | --- | --- | --- | --- | --- | --- | --- |
| CCn1c(C)c(-c2cc(F)c(OC)c(F)c2)c(=O)c(C(=O)O)c1-c1ccc(Cl)c(Cl)c1 [Compound 84, 2-(3,4-dichlorophenyl)-5-(3,5-difluoro-4-methoxy-phenyl)-1-ethyl-6-methyl-4-oxo-pyridine-3-carboxylic acid] | 3 (3=41-60%) | 2 (2=21-40%) | 1 (1=0-20%) | 3 (3=41-60%) | 3 (3=41-60%) | 1 (1=0-20%) | 1 (1=0-20%) | 4 (4=61-80%) | 1 (1=0-20%) | 3 (3=41-60%) | 3 (3=41-60%) | 1 (1=0-20%) |
| CCn1c(C)c(-c2cncc(F)c2)c(=O)c(C(=O)O)c1-c1ccc(Cl)c(Cl)c1 [Compound 85, 2-(3,4-dichlorophenyl)-1-ethyl-5-(5-fluoro-3-pyridyl)-6-methyl-4-oxo-pyridine-3-carboxylic acid] | 3 (3=41-60%) | 1 (1=0-20%) | 1 (1=0-20%) | 1 (1=0-20%) | 3 (3=41-60%) | 1 (1=0-20%) | 1 (1=0-20%) | 4 (4=61-80%) | 1 (1=0-20%) | 1 (1=0-20%) | 2 (2=21-40%) | 1 (1=0-20%) |
| CCn1c(C)c(-c2cc(C)cs2)c(=O)c(C(=O)O)c1-c1ccc(Cl)c(Cl)c1 [Compound 86, 2-(3,4-dichlorophenyl)-1-ethyl-6-methyl-5-(4-methyl-2-thienyl)-4-oxo-pyridine-3-carboxylic acid] | 4 (4=61-80%) | 4 (4=61-80%) | 3 (3=41-60%) | 3 (3=41-60%) | 4 (4=61-80%) | 1 (1=0-20%) | 4 (4=61-80%) | 5 (5=81-100%) | 3 (3=41-60%) | 1 (1=0-20%) | 2 (2=21-40%) | 1 (1=0-20%) |
| CCn1c(C)c(-c2cc(Cl)c(OC)c(OC)c2)c(=O)c(C(=O)O)c1-c1ccc(Cl)c(Cl)c1 [Compound 87, 5-(3-chloro-4,5-dimethoxy-phenyl)-2-(3,4-dichlorophenyl)-1-ethyl-6-methyl-4-oxo-pyridine-3-carboxylic acid] | 3 (3=41-60%) | 2 (2=21-40%) | 2 (2=21-40%) | 2 (2=21-40%) | 3 (3=41-60%) | 1 (1=0-20%) | 1 (1=0-20%) | 4 (4=61-80%) | 1 (1=0-20%) | 1 (1=0-20%) | 1 (1=0-20%) | 1 (1=0-20%) |
| CCOc1cc(-c2c(C)n(CC)c(-c3ccc(Cl)c(Cl)c3)c(C(=O)O)c2=O)cc(C(F)(F)F)c1 [Compound 88, 2-(3,4-dichlorophenyl)-5-[3-ethoxy-5-(trifluoromethyl)phenyl]-1-ethyl-6-methyl-4-oxo-pyridine-3-carboxylic acid] | 2 (2=21-40%) | 2 (2=21-40%) | 2 (2=21-40%) | 1 (1=0-20%) | 2 (2=21-40%) | 1 (1=0-20%) | 1 (1=0-20%) | 4 (4=61-80%) | 1 (1=0-20%) | 1 (1=0-20%) | 1 (1=0-20%) | 1 (1=0-20%) |
| CCc1ccc(-c2c(C)n(CC)c(-c3ccc(Cl)c(Cl)c3)c(C(=O)O)c2=O)cc1 [Compound 89, 2-(3,4-dichlorophenyl)-1-ethyl-5-(4-ethylphenyl)-6-methyl-4-oxo-pyridine-3-carboxylic acid] | 3 (3=41-60%) | 1 (1=0-20%) | 1 (1=0-20%) | 3 (3=41-60%) | 1 (1=0-20%) | 1 (1=0-20%) | 1 (1=0-20%) | 4 (4=61-80%) | 1 (1=0-20%) | 1 (1=0-20%) | 1 (1=0-20%) | 1 (1=0-20%) |
| CCn1c(C)c(-c2ccc(C(C)=O)cc2)c(=O)c(C(=O)O)c1-c1ccc(Cl)c(Cl)c1 [Compound 90, 5-(4-acetylphenyl)-2-(3,4-dichlorophenyl)-1-ethyl-6-methyl-4-oxo-pyridine-3-carboxylic acid] | 1 (1=0-20%) | 1 (1=0-20%) | 1 (1=0-20%) | 2 (2=21-40%) | 2 (2=21-40%) | 1 (1=0-20%) | 1 (1=0-20%) | 3 (3=41-60%) | 1 (1=0-20%) | 1 (1=0-20%) | 1 (1=0-20%) | 1 (1=0-20%) |
| CCn1c(C)c(-c2ccc(F)c(C#N)c2)c(=O)c(C(=O)O)c1-c1ccc(Cl)c(Cl)c1 [Compound 91, 5-(3-cyano-4-fluoro-phenyl)-2-(3,4-dichlorophenyl)-1-ethyl-6-methyl-4-oxo-pyridine-3-carboxylic acid] | 3 (3=41-60%) | 3 (3=41-60%) | 4 (4=61-80%) | 3 (3=41-60%) | 4 (4=61-80%) | 2 (2=21-40%) | 2 (2=21-40%) | 4 (4=61-80%) | 4 (4=61-80%) | 3 (3=41-60%) | 2 (2=21-40%) | 1 (1=0-20%) |
| CCn1c(C)c(-c2ccc(F)c(C#N)c2)c(=O)c(C(=O)O)c1-c1ccc(Cl)c(Cl)c1 [Compound 92, 5-(3-cyano-4-fluoro-phenyl)-2-(3,4-dichlorophenyl)-1-ethyl-6-methyl-4-oxo-pyridine-3-carboxylic acid] | 2 (2=21-40%) | 1 (1=0-20%) | 1 (1=0-20%) | 3 (3=41-60%) | 1 (1=0-20%) | 1 (1=0-20%) | 1 (1=0-20%) | 1 (1=0-20%) | 1 (1=0-20%) | 1 (1=0-20%) | 1 (1=0-20%) | 1 (1=0-20%) |
